Results on 13 compounds are retold here after patent publication EP1181269B1, “CELL PROLIFERATION INHIBITORS” (ABBOTT LABORATORIES, priority 1999, dated 2000).

Assay [1] has as its system human colon adenocarcinoma, MDR positive (HCT-15) cells. Kind of assay: 48-hour cellular proliferation assay (sulforhodamine staining, 96-well microtitre format). The assay is classed as cell-based. The note with it: 48 hours in culture, 0% = DMSO control, 100% = trichloroacetic acid-treated well; for inhibition at 100 µM: Homo sapiens, HCT-15, 10^-4M compound. On the procedure: (§1) Compounds of this invention were tested in a 48-hour cellular proliferation assay which uses human colon adenocarcinoma, MDR positive (HCT-15) cells, and human lung large cell carcinoma, MDR negative (NCI-H460) cells, in the 96-well microtitre format described in Skehan P., et al. New Colorimetric Cytotoxicity Assay for Anticancer Drug Screening. 1990, J. Natl. Cancer Inst. 82:1107-1112. Briefly, the wells of a microtitre plate were charged sequentially with cultured cells and compounds of the invention (1.0 x 10^-4 to 1.0 x 10^-11 M in 10% DMSO prepared by dissolving compounds of the invention in DMSO and adding 11 µL of the DMSO solution to 100 µL of culture medium for a final DMSO concentration of 10%). Two of the following controls were also present in each microtitre plate: a solvent (DMSO) control without drug that yielded a 0% inhibition level and a trichloroacetic acid-treated well that yielded a 100% inhibition level. The cells were grown in culture (37 °C, 5% CO2 atmosphere) for 48 hours then fixed by the addition of trichloroacetic acid. The wells were stained with sulforhodamine, washed with 1% acetic acid, and treated with 0.01 M tris buffer (100 µL) to solubilize the adherent dye. The absorbance of the dye solution was measured with a Molecular Devices SpechaMax340 plate reader. The percent inhibition values were obtained by calculating the proportional response of the experimental values to the absorbance values of the controls.

The test system of assay [2] is human lung large cell carcinoma, MDR negative (NCI-H460) cells. The assay is described as above. The class given is cell-based. The conditions noted are these: 10^-4M compound, 48 hours in culture, 0% = DMSO control, 100% = trichloroacetic acid-treated well; for inhibition at 100 µM: Homo sapiens, read-out: NCI-460 % inhibition at 10^-4M. On the procedure:
as §1

One may read the inhibition as the drop in the measured response relative to a control, in per cent. Take `COc1ccc(S(=O)(=O)Nc2cc(OC)c(OC)c(OC)c2)cc1` [Example 1, 4-methoxy-N-(3,4,5-trimethoxyphenyl)benzenesulfonamide]: the figures for the inhibition at 100 µM in assay [1] and in assay [2] were 99.4% and 98.5%, respectively.
The matching figures for `COc1cc(NS(=O)(=O)c2ccc3c(c2)CCN3C=O)cc(OC)c1OC` [Example 2, 1-formyl-N-(3,4,5-trimethoxyphenyl)indoline-5-sulfonamide]: 79.9% and 74%.
On to `COc1cc(NS(=O)(=O)c2ccc3c(c2)CCN3)cc(OC)c1OC` [Example 3, N-(3,4,5-trimethoxyphenyl)indoline-5-sulfonamide], for which the results for the inhibition at 100 µM in assay [1] and in assay [2] were 86.2% and 59.3%, respectively.
The matching figures for `COc1cc(NS(=O)(=O)c2c[nH]c3ccc([N+](=O)[O-])cc23)cc(OC)c1OC` [Example 4, 5-nitro-N-(3,4,5-trimethoxyphenyl)-1H-indole-3-sulfonamide]: 15.9% and 41.7%.
For `COc1cc(NS(=O)(=O)c2ccc3c(c2)CCN3C)cc(OC)c1OC` [Example 5, 1-methyl-N-(3,4,5-trimethoxyphenyl)indoline-5-sulfonamide], in that order: 97.6% and 96.1%.
The matching figures for `COc1cc(NS(=O)(=O)c2cn(C)c3ccc([N+](=O)[O-])cc23)cc(OC)c1OC` [Example 6, 1-methyl-5-nitro-N-(3,4,5-trimethoxyphenyl)-1H-indole-3-sulfonamide]: 50.6% and 45.5%.
`COc1cc(NS(=O)(=O)c2cn(C)c3ccc(N)cc23)cc(OC)c1OC` [Example 7, 5-amino-1-methyl-N-(3,4,5-trimethoxyphenyl)-1H-indole-3-sulfonamide]: the inhibition at 100 µM was 91.9% in assay [1] and 87% in assay [2].
Regarding `COc1cc(NS(=O)(=O)c2c[nH]c3ccc(N)cc23)cc(OC)c1OC` [Example 8, 5-amino-N-(3,4,5-trimethoxyphenyl)-1H-indole-3-sulfonamide], the inhibition at 100 µM was 37% in assay [1] and under 9.1% in assay [2].
For `COc1cc(NS(=O)(=O)c2ccc3[nH]ccc3c2)cc(OC)c1OC` [Example 9, N-(3,4,5-trimethoxyphenyl)-1H-indole-5-sulfonamide], the results for the inhibition at 100 µM in assay [1] and in assay [2] were 94.1% and 89.1%, respectively.
For `COc1cc(NS(=O)(=O)c2ccc3c(ccn3C)c2)cc(OC)c1OC` [Example 10, 1-methyl-N-(3,4,5-trimethoxyphenyl)-1H-indole-5-sulfonamide], in that order: 100% and 100%.
For `COc1cc(N(C)S(=O)(=O)c2ccc3c(ccn3C)c2)cc(OC)c1OC` [Example 11, N,1-dimethyl-N-(3,4,5-trimethoxyphenyl)-1H-indole-5-sulfonamide], in that order: 100% and 99.9%.
On to `COc1cc(S(=O)(=O)Oc2ccc3[nH]ccc3c2)cc(OC)c1OC` [Example 15, 1H-indol-5-ol,(3,4,5-trimethoxybenzenesulfonate) ester], for which the “HCT-15 % inhibition at 10^-4M” value in assay [1] (10^-4M compound) was determined as 100.0%. In addition, the “NCI-460 % inhibition at 10^-4M” value in assay [2] was 100.0%.
As for `COc1cc(S(=O)(=O)Oc2ccc3c(ccn3C)c2)cc(OC)c1OC` [Example 16, 1-methyl-1H-indol-5-yl 3,4,5-trimethoxybenzenesulfonate], the inhibition at 100 µM in assay [1] and in assay [2] was 100% throughout.
